The record followed here is paper PMC4738305, “Metabolism and Disposition of Aditoprim in Swine, Broilers, Carp and Rats” (Scientific Reports, 2016).

Series [1] is described as follows: Metabolite profiling of ADP in excreta, plasma and bile (LC-v.ARC/MS-IT-TOF). The series is classed as in vivo, carp. Particulars: for percentage of the individual metabolite compared with the total concentration of ADP-related: within 6 h after dosing; for Average percentage of ADP and its metabolites in total dose: Carp, Excreta, single oral 5 mg/kg b.w. ^3H-ADP. The protocol: (§1) Animals (4 swine, 6 broilers, 6 carp, and 3 male and 3 female rats) were housed individually in clean, suspended wire-mesh metabolism cages, designed to separate the urine from the feces (carp were raised in individual aquaria). Each animal was weighed and assigned with a permanent identification number. A single dose of ^3 H-ADP (5 mg/kg b. w., 0.1 Ci/g) was administered via the oral gavage. Excreta were collected on ice at the pre-administration, in the period of 6, 12, and 24 h on day 1 d, and afterwards, intermittently in the period of 24 h up to 14 d. The piscine excreta were collected by changing and collecting raised water. The total volume or weight of each sample was measured and homogenized. The total radioactivity levels were determined through LSC for the recovery calculations. After the preparation, the samples were analyzed through LC/MS-IT-TOF with v. ARC radiometric detection (XenoBioticLaboratories, Inc.) for metabolite profiling. The pretreatment samples were used as controls to determine the background radioactivity or the endogenous nondrug-related ions observed within respective matrices or their extracts.
(§2) A total of 36 animals from each species (swine n = 24) were randomly assigned to six equal treatment groups and administered a single daily dose of ^3 H-ADP at 5 mg/kg b. w. (0.1 Ci/g) through oral gavage for 7 consecutive days. All the animals were housed on the basis of their group in the cages or aquaria throughout the whole study period. A group of animals was slaughtered through exsanguination under diethyl ether inhalation of anesthesia in the period of 6 h, 1, 3, 7, 14, and 21 d after the administration. The blood samples were immediately collected into the heparinized tubes and was centrifuged at 1920 × g at 4 °C for 10 min to obtain the plasma. The tissues from the heart, liver, spleen, lung, kidney, craw (broilers), stomach, intestine, fat, skin, muscle, thymus, pancreas, bile, bladder, hair (scale for carp), genital gland, adrenal glands, swim bladder (carp), brain, lymph, and bursa (broilers) were carefully excised and collected. The tissues were thoroughly rinsed with the deionized water to remove the residuary blood, blotted to dryness, and finally to perform the homogenization. In order to avoid cross-contamination the dissecting instruments were washed during the tissue procurements. The blank tissues were collected in order to provide control matrices. The total radioactivity levels in each sample were determined through LSC. The samples extracted from the plasma, bile, and tissues of the liver, kidney, muscle, and fat/skin were analyzed through LC/MS-IT-TOF and v. ARC radiometric detection for metabolite profiling. The blank samples were used as control to determine the background radioactivity or the endogenous nondrug-related ions observed within respective matrices or their extracts.
(§3) For metabolite profiling, the urine and feces samples from each animals were pooled proportionally to the excreted amount in each sampling period from 0 to 6 h, 6 h to 1 d, 1 to 3 d, 3 to 7 d, and 7 to 14 d post-dose, respectively. All samples were fully homogenized before the process. The pre-dose and blank samples served as the controls for determining the background radioactivity or the endogenous, nondrug-related ions observed within respective matrices or their extracts.
(§4) The urine samples (plasma, bile and raised water for carp) was subjected to solid-phase extraction with an Oasis MCX cartridge (3 mL, […]; Waters, Milford, MA, USA) for metabolite purification and enrichment. The pH value was adjusted to 2.8–3.2 by adding 1 M hydrochloric acid (HCl), and 2 mL of the sample was transferred into MCX cartridge, which was preconditioned with 3 mL of methanol and 3 mL of 0.1 mol/L HCl solution. The cartridge was washed with 3 mL of 0.1 mol/L HCl solution and was eluted with 5 mL of NH4OH/methanol (4:96, v:v). The effluent was concentrated to dryness under a stream of nitrogen at 40 °C. […]

Test in series [2]: as above
The series is classed as in vivo, swine. Particulars: for percentage of the individual metabolite compared with the total concentration of ADP-related: within 6 h after dosing; for Average percentage of ADP and its metabolites in total dose: Swine, single oral 5 mg/kg b.w. ^3H-ADP. The protocol: as §1, §2, §3, §4

A short description of series [3]: Radioactivity excretion (mass balance) after a single oral dose of ^3H-ADP. The series is classed as in vivo. Conditions: single oral 5 mg/kg b. w., within 14 d. The protocol:
as §1, with “ARC radiometric detection (XenoBioticLaboratories, Inc.) for metabolite profiling.” left out
Measurements of the total radioactivity in each sample were conducted by Packard Tri-Carb 2900 TR liquid scintillation counter (PerkinElmer Life and Analytical Sciences). […] The actual radioactivity of each sample was calculated by subtracting the background value form the mean radioactivity in two blank samples. […]

In the case of `COc1cc(Cc2cnc(N)nc2N)cc(OC)c1N` [A2, N-didesmethyl-ADP], the “percentage of the individual metabolite compared with the total concentration of ADP-related” value (“percentage of the individual metabolite” for short) in series [1] (Carp Bile) turned out to be 9.8%; in series [1] (Carp Extra (excreta)) it was 2.5%; in series [1] (Carp Plasma) it was 14.4%; in series [2] (Swine Feces) it was 1.1%; in series [2] (Swine Plasma), 15.0%; in series [2] (Swine Urine) it was 11.8%. Besides, the “Average percentage of ADP and its metabolites in total dose” value (from here on “Average percentage”) is given as 2.9% in series [1], 0.5% in series [2] (Feces) and 11.3% in series [2] (Urine).

For the compound `COc1cc(Cc2cnc(N)nc2N)cc(OC)c1N(C)C` [A0, 2,4-Diamino-5-[4-(dimethylamino)-3,5-dimethoxybenzyl] pyrimidine], the “percentage of the individual metabolite” value in series [1] (Carp Bile) is 64.7%; in series [1] (Carp Extra (excreta)), 87.5%; in series [1] (Carp Plasma), 61.7%; in series [2] (Swine Feces), 89.1%; in series [2] (Swine Plasma) it was 53.0%; in series [2] (Swine Urine), 42.3%. Besides, the figures for the “Average percentage” value in series [1], in series [2] (Feces) and in series [2] (Urine) were 82.4%, 16.0% and 33.4%, respectively. The “level of intact ADP” value in series [1] (carp, single oral 5 mg/kg b. w. (Table S5)) is recorded as 82.4 % of the oral dose. In addition, the “share of sample radioactivity” value in series [2] (swine urine, period of 7–14 d (as the text reads), single oral dose) is recorded as “approximately 90%”. For the same compound, the “urine excretion of radioactivity” value in series [3] (rats) and in series [3] (swine) was 78 % of the administered dose throughout.

Regarding `CNc1c(OC)cc(Cc2cnc(N)nc2N)cc1OC` [A1, N-monodesmethyl-ADP], the “percentage of the individual metabolite” value worked out at 25.5% in series [1] (Carp Bile); 9.9% in series [1] (Carp Extra (excreta)); 23.9% in series [1] (Carp Plasma); 9.7% in series [2] (Swine Feces); 23.7% in series [2] (Swine Plasma); 11.4% in series [2] (Swine Urine). For the same compound, the entries for the “Average percentage” value in series [1], in series [2] (Feces) and in series [2] (Urine) were 8.9%, 2.9% and 13.3%, respectively.
